Biological target: NAT (N-acetyltransferase)
Assay: Kd measurement (Fig. S8, method not shown); fluorescence titration and 1H NMR of acetylation by NAT

How did the Kd turn out when `COc1ccc2c(c1)c(CC(=O)NCCCCN1C(=O)c3cccc4cc(N)cc(c34)C1=O)c(C)n2C(=O)c1ccc(Cl)cc1` [3IAN4] was run?
The Kd was 2230 nM.

Source: PMC7480271, “A molecular-logic gate for COX-2 and NAT based on conformational and structural changes: visualizing the progression of liver disease” (Chemical Science, 2020)
